# Measurements: US7871631B2, “Methods of inhibiting the lowering of antihuman TNF-α antibody” (Ajinomoto Co., Inc., priority 2004, dated 2011)
# Tests used:
# [1] = test system: patient with small intestine/large intestine type Crohn's disease; experiment: Clinical case: repeated administration of Infliximab under enteral administration of ELENTAL, Crohn's disease activity index (CDAI) and ulcer findings; assay type: in vivo, human; settings: for CDAI two weeks later: ELENTAL continued
# Method: A patient is a person, and they are the patient with small intestine/large intestine type Crohn's disease that began. By August 2002, Crohn's disease repeatedly recurred and they were hospitalized three times.
# In July 2002, since Crohn's disease recurred again accompanied by stomachache, diarrhea and fever, 5 mg/kg of Infliximab (REMICADE® (trademark) 100 for drip infusion) under the enteral administration of 1200 kcal of ELENTAL® (trademark) was administered to the patient. The clinical activity index of Crohn's disease before the administration was 186 (150 or higher fall into the active stage). However, the index was lowered to 67 two weeks after the administration. During the period, an open longitudinal ulcer(s) seen in the transverse colon and sigmoid colon was cicatrized. After that, thought the patient was treated with the home enteral nutritional therapy, the symptoms recurred in February 2003 and CDAI increased up to 230. Continuing the enteral administration of ELENTAL® (trademark), Infliximab (5 mg/kg) was administered for the second time. Then, CDAI was lowered again to 63 two weeks later. […] Therefore, Infliximab (5 mg/kg) was administered for the third time, and CDAI was lowered to 80 two weeks later. Before and after the administration for the third time, it was confirmed that an open ulcer(s) of the sigmoid colon was cicatrized. Similarly, though CDAI increased in the 50th week, 68th week and 83rd week from the first administration, CDAI of 147 to 275 decreased to 50 to 80 […] by the fourth, fifth and sixth time administrations of Infliximab. During that time, administration of ELENTAL was continued.
# Usually, the repeated administration of Infliximab promotes production of antibody and, therefore, its effect weakens in the repeated administration.
# [2] = test system: patient with small intestine/large intestine type Crohn's disease
substance,measurement,setting,value
Infliximab,CDAI at recurrence of symptoms,"[1]; February 2003, after first Infliximab administration, under home enteral nutritional therapy, before second administration",230
same,open ulcer(s) of the sigmoid colon,[1]; before and after the third administration of Infliximab 5 mg/kg under ELENTAL,cicatrized
same,open longitudinal ulcer(s) in the transverse colon and sigmoid colon,[1]; during the two weeks after first administration of Infliximab 5 mg/kg under ELENTAL,cicatrized
same,clinical activity index of Crohn's disease (CDAI) two weeks after the administration,"[1]; first administration, Infliximab 5 mg/kg drip infusion under enteral ELENTAL 1200 kcal, index before administration 186 (150 or higher = active stage)",67
same,CDAI two weeks later,"[1]; second administration of Infliximab 5 mg/kg, CDAI before 230",63
same,CDAI two weeks later,"[1]; third administration of Infliximab 5 mg/kg, CDAI before 250",80
same,CDAI increase under administration of ELENTAL,"[1]; two months after second administration, before third administration",250
same,tuberculosis bacterium infection,[2]; first to sixth administration of Infliximab with ELENTAL,not seen
same,infection in organs of respiration or in a urinary tract,"[2]; human, in vivo",no finding of indication of infection
